Bridge positions count the residues as written; N and C are the ends. Square brackets hold non-standard residues; d marks the D form. Peptide text beside a SMILES is read from it. * marks the point of attachment. X1 = CCC(C)CCCCC(O)CC(=O)*; dDab = NCC[C@@H](N)C(=O)O; Dab = NCC[C@H](N)C(=O)O
How the values were obtained:
Acute toxicity in mice = format: in vivo; conditions: for LD50: mouse, in vivo
Method: The acute toxicities of Bu-2470 A and B1 were determined in mice by intravenous(iv) and subcutaneous (sc) routes. Colistin was tested comparatively as a reference compound.

| SMILES | Acute toxicity relative to colistin (Acute toxicity in mice; iv route) | LD50 (Acute toxicity in mice; intravenous) [mg/kg] | LD50 (Acute toxicity in mice; sc, subcutaneous) [mg/kg] | Acute toxicity relative to colistin (Acute toxicity in mice; sc route) | Solubility in aqueous lower alcohols, aqueous dioxane, dimethylsulfoxide and dimethylformamide (Solubility; aqueous lower alcohols, aqueous dioxane, dimethylsulfoxide, dimethylformamide) | Solubility in lower alcohols (Solubility; lower alcohols) | Solubility in other organic solvents (Solubility; other organic solvents) | Solubility in water (Solubility; water over a wide pH range) |
| --- | --- | --- | --- | --- | --- | --- | --- | --- |
| CC(C)C[C@@H]1NC(=O)[C@H](CCN)NC(=O)[C@H](CCN)NC(=O)[C@H](CC(C)C)NC(=O)[C@@H](Cc2ccccc2)NC(=O)[C@H](CCN)NC(=O)[C@@H](NC(=O)[C@H](N)CCN)CCNC1=O [Bu-2470A] (H-[dDab][Dab][Dab][dF]L[Dab][Dab]L; lactam 2-C) | less toxic than colistin | 35 | 56 | more toxic | readily soluble | slightly soluble | practically insoluble | readily soluble |
| CCC(C)CCCCC(O)CC(=O)N[C@H](CCN)C(=O)N[C@H]1CCNC(=O)[C@H](CC(C)C)NC(=O)[C@H](CCN)NC(=O)[C@H](CCN)NC(=O)[C@H](CC(C)C)NC(=O)[C@@H](Cc2ccccc2)NC(=O)[C@H](CCN)NC1=O (stereo partly drawn) [Bu-2470B1] (X1-[dDab][Dab][Dab][dF]L[Dab][Dab]L; lactam 2-C) | less toxic than colistin | 35 | 280 | less toxic than colistin | – | – | – | – |
